# Test results published in patent publication US20110178119A1, “Bridged N-Bicyclic Sulfonamido Inhibitors of Gamma Secretase” (ELAN PHARMACEUTICALS, INC., priority 2005, published 2011).
# Target: T1, gamma-secretase (Homo sapiens, UniProt P49768)
# T1 construct: a partially purified extract of IMR-32 cell membranes as the gamma-secretase enzyme preparation; endogenous in cells; host or cells: IMR-32 cell membranes, partially purified extract
# Assay: Gamma-secretase APP enzyme assay (cleavage of MBP-C125swe substrate, sandwich ELISA)
# Assay type: biochemical
# Details: partially purified extract of IMR-32 cell membranes as enzyme, 2 h at 37° C, ELISA detection of cleavage product, read-out: γAPP
# Description: The gamma-secretase APP enzyme assay was designed to measure the specific proteolytic cleavage of an APP substrate (MBP-C125 Swe fusion protein) at the […] site. The assay used a partially purified extract of IMR-32 cell membranes as the gamma-secretase enzyme preparation and a recombinant fusion protein containing the C-terminal 125 amino acids of the Swedish variant of the APP (MBP-C125swe) as the substrate. This assay involved two steps beginning with the enzymatic reaction generating a cleavage product that was captured with an immobilized antibody specific for the neo-epitope […] site. The captured cleavage product was then detected in a sandwich ELISA assay with a biotinylated reporter antibody that is specific to Aβ (17-28). Streptavidin-linked alkaline phosphatase was then added that would generate a fluorescent signal proportional to the amount of cleavage product. This assay was used to discover small molecule inhibitors of gamma-secretase. Briefly, a 149 mg/ml solution of […] detergent was made with water at 42° C. and then rotated for 30 minutes at the same temperature. […] Louis, Mo.) to a concentration of 8 mg/ml. This solution containing BigCHAPS and lipid at 8 mg/ml is then diluted to 0.53 mg/ml lipid with a pre-warmed solution of Hepes and sodium chloride. This final solution containing Hepes buffer, sodium chloride, BigCHAPS detergent and lipid is used to create working solutions of both gamma-secretase (25 Units) and the MBP-C125 substrate (0.05 mg/ml). Gamma-secretase was then added to a 96-well micro-titre plate and then incubated with various concentrations of inhibitor for 30 minutes at 37° C. MBP-C125 substrate was then added to initiate the reaction that would run for two hours at 37° C. The reaction was quenched with the addition of SDS to a final concentration of 0.1% and then 100 μl of the reaction mixture was transferred to a capture ELISA plate and incubated overnight at 4° C. Detection of the cleavage product was performed using a standard sandwich ELISA assay and quantified using a six point standard curve.
row,SMILES,IC50
1,O=S(=O)(c1ccc(Br)cc1)N1C2CCCC1CC2 [8-(4-bromophenylsulfonyl)-8-azabicyclo[3.2.1]octane],2000 to 5000 nM
2,O=S(=O)(c1ccc(Cl)cc1)N1C2CCCC1CC2 [8-(4-chlorophenylsulfonyl)-8-azabicyclo[3.2.1]octane],2000 to 5000 nM
3,O=S(=O)(c1ccc(C(F)(F)F)cc1)N1C2CCCC1CCC2 [9-(4-(trifluoromethyl)phenylsulfonyl)-9-azabicyclo[3.3.1]nonane],2000 to 5000 nM
4,O=S(=O)(c1ccc(Br)c(F)c1)N1C2CCCC1CCC2 [9-(4-bromo-3-fluorophenylsulfonyl)-9-azabicyclo[3.3.1]nonane],2000 to 5000 nM
5,O=S(=O)(c1ccc(Br)cc1)N1C2CCCC1CCC2 [9-(4-bromophenylsulfonyl)-9-azabicyclo[3.3.1]nonane],1000 to 2500 nM
6,"O=C1NCC2CCCC1N2S(=O)(=O)c1ccc(Cl)cc1 (stereo not shown) [9-(4-chlorophenylsulfonyl)-3,9-diazabicyclo[3.3.1]nonan-2-one]",2000 to 5000 nM
7,C=C1CC2CCCC(C1)N2S(=O)(=O)c1ccc(Cl)cc1 [9-(4-chlorophenylsulfonyl)-3-methylene-9-azabicyclo[3.3.1]nonane],< 1000 nM
8,O=S(=O)(c1ccc(Cl)cc1)N1C2CCCC1COC2 [9-(4-chlorophenylsulfonyl)-3-oxa-9-azabicyclo[3.3.1]nonane],2000 to 5000 nM
9,"O=S(=O)(c1ccc(Cl)cc1)N1C2CCCC1CN(c1ccccc1)C2 [9-(4-chlorophenylsulfonyl)-3-phenyl-3,9-diazabicyclo[3.3.1]nonane]",1000 to 2500 nM
10,O=S(=O)(c1ccc(Cl)cc1)N1C2CCCC1CSC2 [9-(4-chlorophenylsulfonyl)-3-thia-9-azabicyclo[3.3.1]nonane],< 1000 nM
11,O=S(=O)(c1ccc(Cl)cc1)N1C2CCCC1CC(O)C2 (stereo not shown) [9-(4-chlorophenylsulfonyl)-9-azabicyclo[3.3.1]nonan-3-ol],2000 to 5000 nM
12,O=S(=O)(c1ccc(Cl)cc1)N1C2CCCC1CC(=NO)C2 [9-(4-chlorophenylsulfonyl)-9-azabicyclo[3.3.1]nonan-3-one oxime],2000 to 5000 nM
13,O=C1CC2CCCC(C1)N2S(=O)(=O)c1ccc(Cl)cc1 [9-(4-chlorophenylsulfonyl)-9-azabicyclo[3.3.1]nonan-3-one],< 1000 nM
14,O=S(=O)(c1ccc(Cl)cc1)N1C2CCCC1CCC2 [9-(4-chlorophenylsulfonyl)-9-azabicyclo[3.3.1]nonane],1000 to 2500 nM
15,O=S(=O)(c1ccc(Br)s1)N1C2CCCC1CCC2 [9-(5-bromothiophen-2-ylsulfonyl)-9-azabicyclo[3.3.1]nonane],2000 to 5000 nM
16,O=S(=O)(c1ccc(Cl)s1)N1C2CCCC1CCC2 [9-(5-chlorothiophen-2-ylsulfonyl)-9-azabicyclo[3.3.1]nonane],2000 to 5000 nM
17,"O=C1NC(=O)C2CCCC1N2S(=O)(=O)c1ccc(Cl)cc1 [9-[(4-chlorophenyl)sulfonyl]-3,9-diazabicyclo[3.3.1]nonane-2,4-dione]",< 1000 nM
18,CS(=O)(=O)OC1CC2CCCC(C1)N2S(=O)(=O)c1ccc(Cl)cc1 (stereo not shown) [Methanesulfonic acid 9-(4-chloro-benzenesulfonyl)-9-aza-bicyclo[3.3.1]non-3-yl ester],1000 to 2500 nM
19,CN(C(=O)OC(C)(C)C)C1CC2CCCC(C1)N2S(=O)(=O)c1ccc(Cl)cc1 (stereo not shown) [[9-(4-Chloro-benzenesulfonyl)-9-aza-bicyclo[3.3.1]non-3-yl]-methyl-carbamic acid tert-butyl ester],< 1000 nM
